Molecular target: Tumor necrosis factor (Homo sapiens, UniProt P01375)
Test: Inhibition of human TNF-alpha secretion stimulated by LPS

Chain of Tumor necrosis factor (P01375 whole entry): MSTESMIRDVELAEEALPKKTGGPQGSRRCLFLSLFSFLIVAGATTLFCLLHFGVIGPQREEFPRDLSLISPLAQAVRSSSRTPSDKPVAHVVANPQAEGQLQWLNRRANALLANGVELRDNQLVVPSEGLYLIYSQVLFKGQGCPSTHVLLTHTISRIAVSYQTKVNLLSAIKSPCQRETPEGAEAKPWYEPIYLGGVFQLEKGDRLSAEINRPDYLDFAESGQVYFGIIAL

Compound `Cc1ccc(Cl)cc1Nc1cc(Cl)c2nonc2c1[N+](=O)[O-]` has an EC50 of 300 nM.

— BindingDB's records for PubMed 33569941 (n/a, 2021)
